Calls of active or inactive are those of the source.
Columns and labels:
[1] = molecular target: Lysosomal acid glucosylceramidase (Homo sapiens, UniProt P04062); assay: Dose response cell-based high throughput screening assay to identify enhancers of beta-glucosidase activity. [Related pubchem assays: 784 ]; assay type: functional
[2] = molecular target: Polyadenylate-binding protein 1 (Homo sapiens, UniProt P11940); assay: PABP poly(A) RNA binding inhibitors, primary screen, biochemical, fluorescence polarization, uHTS (AID 2014)
[3] = molecular target: Eukaryotic translation initiation factor 4H (Homo sapiens, UniProt Q15056); assay: human eIF4H binding inhibitors, primary screen, translation initiation inhibitor project, biochemical, uHTS, fluorescence polarization (AID 2012)
Aspartyl aminopeptidase = Aspartyl aminopeptidase (Plasmodium falciparum 3D7, UniProt Q8I2J3)
Sequence of Aspartyl aminopeptidase (Q8I2J3 whole entry): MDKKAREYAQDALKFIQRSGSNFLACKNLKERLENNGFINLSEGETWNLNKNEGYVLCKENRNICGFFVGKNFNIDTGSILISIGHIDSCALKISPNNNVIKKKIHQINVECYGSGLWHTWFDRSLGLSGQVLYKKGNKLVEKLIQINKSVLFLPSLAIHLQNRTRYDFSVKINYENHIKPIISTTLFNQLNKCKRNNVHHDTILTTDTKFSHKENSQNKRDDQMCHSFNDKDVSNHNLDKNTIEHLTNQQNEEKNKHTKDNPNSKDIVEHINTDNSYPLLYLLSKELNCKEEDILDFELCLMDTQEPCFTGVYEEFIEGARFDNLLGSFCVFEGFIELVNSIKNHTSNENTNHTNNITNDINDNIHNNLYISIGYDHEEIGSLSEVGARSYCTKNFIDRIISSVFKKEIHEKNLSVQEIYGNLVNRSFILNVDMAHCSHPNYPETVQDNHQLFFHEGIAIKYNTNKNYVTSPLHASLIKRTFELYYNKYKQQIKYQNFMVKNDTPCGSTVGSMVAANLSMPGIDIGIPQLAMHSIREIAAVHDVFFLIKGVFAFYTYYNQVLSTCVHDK

Procathepsin L = Procathepsin L (Homo sapiens, UniProt P07711)
[4] = molecular target: T1, Voltage-gated N-type calcium channel alpha-1B subunit/Amyloid beta A4 precursor protein-binding family A member 1 (Homo sapiens, UniProt Q00975+Q02410); assay: disruptors of Mint-PDZ/N-type channel peptide interaction – biochemical, HTRF, set 2, SAR follow-up (AID 434980); assay type: functional
T1 sequence (Q00975 whole entry): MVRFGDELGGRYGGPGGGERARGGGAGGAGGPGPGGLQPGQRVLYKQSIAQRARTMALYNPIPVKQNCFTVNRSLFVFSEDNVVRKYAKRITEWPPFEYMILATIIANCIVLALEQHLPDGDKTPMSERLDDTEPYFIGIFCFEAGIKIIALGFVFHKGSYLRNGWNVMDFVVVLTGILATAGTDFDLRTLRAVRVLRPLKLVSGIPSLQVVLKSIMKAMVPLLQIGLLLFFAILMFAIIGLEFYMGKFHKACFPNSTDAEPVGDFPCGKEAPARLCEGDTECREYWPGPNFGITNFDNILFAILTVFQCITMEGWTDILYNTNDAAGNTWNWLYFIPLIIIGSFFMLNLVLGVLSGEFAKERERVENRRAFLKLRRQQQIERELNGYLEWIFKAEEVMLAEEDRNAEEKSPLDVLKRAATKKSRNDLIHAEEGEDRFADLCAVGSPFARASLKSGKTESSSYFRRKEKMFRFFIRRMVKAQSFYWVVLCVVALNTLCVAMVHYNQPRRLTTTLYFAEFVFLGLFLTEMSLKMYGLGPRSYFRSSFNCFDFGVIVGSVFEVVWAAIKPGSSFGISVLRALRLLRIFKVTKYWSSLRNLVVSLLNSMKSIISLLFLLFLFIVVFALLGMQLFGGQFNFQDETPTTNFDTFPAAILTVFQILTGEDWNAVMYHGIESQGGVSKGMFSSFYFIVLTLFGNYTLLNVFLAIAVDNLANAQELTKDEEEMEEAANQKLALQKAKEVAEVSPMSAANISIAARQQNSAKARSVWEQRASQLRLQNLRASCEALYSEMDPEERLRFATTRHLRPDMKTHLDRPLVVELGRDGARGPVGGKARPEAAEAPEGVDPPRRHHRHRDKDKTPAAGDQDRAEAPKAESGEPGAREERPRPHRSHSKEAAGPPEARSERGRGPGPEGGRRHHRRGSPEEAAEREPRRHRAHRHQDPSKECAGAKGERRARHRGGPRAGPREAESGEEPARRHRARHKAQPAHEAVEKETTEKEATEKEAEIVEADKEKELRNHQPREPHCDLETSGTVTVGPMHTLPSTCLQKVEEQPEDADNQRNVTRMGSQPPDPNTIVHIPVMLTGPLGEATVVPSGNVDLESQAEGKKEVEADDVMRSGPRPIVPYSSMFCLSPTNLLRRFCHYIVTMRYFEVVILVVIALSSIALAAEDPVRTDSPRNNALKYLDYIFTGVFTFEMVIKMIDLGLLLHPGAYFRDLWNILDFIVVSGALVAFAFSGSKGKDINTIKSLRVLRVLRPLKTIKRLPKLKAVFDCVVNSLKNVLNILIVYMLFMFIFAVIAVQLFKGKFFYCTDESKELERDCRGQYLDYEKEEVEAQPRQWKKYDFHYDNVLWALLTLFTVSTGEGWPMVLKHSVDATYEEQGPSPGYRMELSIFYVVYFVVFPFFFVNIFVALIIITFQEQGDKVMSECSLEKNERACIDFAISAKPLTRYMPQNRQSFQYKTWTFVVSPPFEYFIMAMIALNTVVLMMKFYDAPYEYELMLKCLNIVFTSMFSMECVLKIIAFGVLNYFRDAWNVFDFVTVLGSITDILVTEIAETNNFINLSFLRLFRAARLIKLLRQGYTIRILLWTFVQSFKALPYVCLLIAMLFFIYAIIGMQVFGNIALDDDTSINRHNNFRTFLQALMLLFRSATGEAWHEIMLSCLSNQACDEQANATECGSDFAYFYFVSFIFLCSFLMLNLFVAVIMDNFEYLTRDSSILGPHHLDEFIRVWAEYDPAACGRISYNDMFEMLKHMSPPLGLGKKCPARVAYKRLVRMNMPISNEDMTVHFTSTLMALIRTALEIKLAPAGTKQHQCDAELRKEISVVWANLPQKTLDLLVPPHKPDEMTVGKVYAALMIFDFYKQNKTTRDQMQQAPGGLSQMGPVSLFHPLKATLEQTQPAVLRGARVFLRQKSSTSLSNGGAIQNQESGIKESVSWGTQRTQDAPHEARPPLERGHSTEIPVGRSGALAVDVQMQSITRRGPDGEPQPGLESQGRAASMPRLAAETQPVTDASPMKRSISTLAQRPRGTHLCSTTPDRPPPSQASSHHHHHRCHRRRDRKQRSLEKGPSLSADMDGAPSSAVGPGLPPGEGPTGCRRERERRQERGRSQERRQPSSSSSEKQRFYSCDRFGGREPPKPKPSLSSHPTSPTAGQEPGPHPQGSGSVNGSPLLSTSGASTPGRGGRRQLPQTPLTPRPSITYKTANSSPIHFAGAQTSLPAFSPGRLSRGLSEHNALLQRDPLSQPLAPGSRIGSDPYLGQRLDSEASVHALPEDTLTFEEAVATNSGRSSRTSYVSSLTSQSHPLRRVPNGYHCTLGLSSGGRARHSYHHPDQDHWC
T1 sequence (Q02410 whole entry): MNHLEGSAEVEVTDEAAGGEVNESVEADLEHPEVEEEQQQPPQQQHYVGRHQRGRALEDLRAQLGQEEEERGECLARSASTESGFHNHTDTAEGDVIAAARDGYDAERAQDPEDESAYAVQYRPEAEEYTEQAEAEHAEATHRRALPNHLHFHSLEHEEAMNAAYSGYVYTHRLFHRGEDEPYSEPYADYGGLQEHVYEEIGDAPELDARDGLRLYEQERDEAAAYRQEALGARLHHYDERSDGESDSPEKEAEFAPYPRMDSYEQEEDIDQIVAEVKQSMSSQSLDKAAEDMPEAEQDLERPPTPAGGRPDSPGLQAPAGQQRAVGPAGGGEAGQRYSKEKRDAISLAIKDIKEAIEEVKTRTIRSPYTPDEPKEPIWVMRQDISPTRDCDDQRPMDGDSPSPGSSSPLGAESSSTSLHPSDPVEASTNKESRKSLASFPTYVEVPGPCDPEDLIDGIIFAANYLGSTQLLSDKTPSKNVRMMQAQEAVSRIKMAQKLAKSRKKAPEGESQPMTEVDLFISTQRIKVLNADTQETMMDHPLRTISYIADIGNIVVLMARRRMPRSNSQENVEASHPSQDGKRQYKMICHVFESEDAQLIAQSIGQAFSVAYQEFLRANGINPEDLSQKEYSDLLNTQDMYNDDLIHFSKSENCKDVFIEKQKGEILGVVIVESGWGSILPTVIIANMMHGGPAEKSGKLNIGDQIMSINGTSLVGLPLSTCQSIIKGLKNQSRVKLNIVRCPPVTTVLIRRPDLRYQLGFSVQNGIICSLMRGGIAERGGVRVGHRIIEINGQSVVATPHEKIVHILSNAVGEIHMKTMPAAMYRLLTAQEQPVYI

[5] = molecular target: T1, Voltage-gated N-type calcium channel alpha-1B subunit/Amyloid beta A4 precursor protein-binding family A member 1; assay: disruptors of Mint-PDZ/N-type channel peptide interaction – biochemical, HTRF, SAR follow-up (AID 2489); assay type: functional
[6] = molecular target: Cystic fibrosis transmembrane conductance regulator/Golgi-associated PDZ and coiled-coil motif-containing protein (Homo sapiens, UniProt P13569+Q9HD26); assay: CAL PDZ peptide-binding inhibitors, dose response, biochemical, fluorescence polarization, Cerulean-tagged CAL PDZ, cherry-picks (AID 504773)
Nonstructural protein 1 = Nonstructural protein 1 (Influenza A virus, UniProt Q194T2); assay type: functional, Influenza A virus (A/California/07/2009(H1N1))
Sequence of Nonstructural protein 1 (Q194T2 whole entry): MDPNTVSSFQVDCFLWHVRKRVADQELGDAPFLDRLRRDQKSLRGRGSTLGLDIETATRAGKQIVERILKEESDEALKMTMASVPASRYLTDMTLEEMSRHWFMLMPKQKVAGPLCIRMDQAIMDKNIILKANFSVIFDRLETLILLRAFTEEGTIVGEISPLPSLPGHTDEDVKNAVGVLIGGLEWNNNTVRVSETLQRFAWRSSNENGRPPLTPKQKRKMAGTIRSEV

[7] = molecular target: Glucose-6-phosphate 1-dehydrogenase (Homo sapiens, UniProt P11413); assay: human G6PD enzyme inhibitors, dose response, selectivity assay for P. falciparum G6PD inhibitor project, biochemical, fluorescence (AID 504792); assay type: functional
[8] = molecular target: Mitochondrial peptide methionine sulfoxide reductase (Bos taurus, UniProt P54149); assay: Absorbance-based biochemical high throughput dose response assay for activators of Methionine sulfoxide reductase A (MsrA).; assay type: functional
Sequence of Mitochondrial peptide methionine sulfoxide reductase (P54149 whole entry): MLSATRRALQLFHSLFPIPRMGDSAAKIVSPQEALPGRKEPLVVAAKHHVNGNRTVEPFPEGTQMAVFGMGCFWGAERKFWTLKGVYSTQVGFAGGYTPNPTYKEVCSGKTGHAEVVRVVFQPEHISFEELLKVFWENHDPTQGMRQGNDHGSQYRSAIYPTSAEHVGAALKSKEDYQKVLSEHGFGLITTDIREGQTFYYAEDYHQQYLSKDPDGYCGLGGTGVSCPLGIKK

[9] = molecular target: T2, Rac GTPase-activating protein 1 (Homo sapiens, UniProt Q9H0H5); assay: MgcRacGAP GTPase-activating activity inhibitors, confirmation, biochemical, ADP Hunter fluorescence, primary and confirmatory (AID 624330); assay type: functional
T2 sequence (Q9H0H5 whole entry): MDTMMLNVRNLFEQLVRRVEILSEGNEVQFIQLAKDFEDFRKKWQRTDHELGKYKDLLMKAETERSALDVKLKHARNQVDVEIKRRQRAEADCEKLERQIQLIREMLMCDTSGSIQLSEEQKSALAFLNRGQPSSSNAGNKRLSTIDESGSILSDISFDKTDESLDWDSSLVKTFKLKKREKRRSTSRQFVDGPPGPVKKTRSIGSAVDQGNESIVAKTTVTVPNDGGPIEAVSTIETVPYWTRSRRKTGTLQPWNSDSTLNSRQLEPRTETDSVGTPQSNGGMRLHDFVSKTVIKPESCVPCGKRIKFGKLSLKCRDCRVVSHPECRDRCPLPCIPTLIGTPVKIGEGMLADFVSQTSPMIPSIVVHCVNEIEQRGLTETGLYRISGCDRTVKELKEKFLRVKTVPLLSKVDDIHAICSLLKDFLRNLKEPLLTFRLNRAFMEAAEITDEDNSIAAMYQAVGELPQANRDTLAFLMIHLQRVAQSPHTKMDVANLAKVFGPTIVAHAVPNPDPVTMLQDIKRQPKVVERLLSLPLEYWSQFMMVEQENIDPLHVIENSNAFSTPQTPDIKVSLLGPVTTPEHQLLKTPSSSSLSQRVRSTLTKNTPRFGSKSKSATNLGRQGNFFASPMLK

[10] = HeLa cell cytotoxicity, dose response, cytotoxicity control for MgcRacGAP inhibitor project (AID 624300); assay type: functional
[11] = molecular target: T3, Kappa-type opioid receptor (Homo sapiens, UniProt P41145); assay: SAR analysis of small molecule agonists of the kappa opioid receptor via a luminescent beta-arrestin assay - Set 2. [Related pubchem assays (depositor defined):AID1777, AID1785, AID1786, AID1966, AID2133, AID2136, AID2284, AID449737]; assay type: functional
T3 sequence (P41145 whole entry): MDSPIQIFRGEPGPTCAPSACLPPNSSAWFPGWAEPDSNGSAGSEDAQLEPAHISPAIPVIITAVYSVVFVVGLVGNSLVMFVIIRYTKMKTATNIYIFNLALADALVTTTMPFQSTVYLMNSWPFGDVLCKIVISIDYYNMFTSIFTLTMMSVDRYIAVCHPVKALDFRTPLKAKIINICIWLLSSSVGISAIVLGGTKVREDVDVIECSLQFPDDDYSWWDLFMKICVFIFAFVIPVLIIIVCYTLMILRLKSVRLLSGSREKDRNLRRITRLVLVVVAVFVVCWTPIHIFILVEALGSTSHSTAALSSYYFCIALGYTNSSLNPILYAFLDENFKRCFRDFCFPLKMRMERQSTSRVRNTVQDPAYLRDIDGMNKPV

[12] = molecular target: Delta-type opioid receptor (Homo sapiens, UniProt P41143); assay: SAR Analysis of Antagonists of the DOR Receptor using an Image-Based Assay - Set 2. [Related pubchem assays (depositor defined):AID1777, AID1785, AID1786, AID1966, AID2133, AID2136, AID2284, AID2285, AID2357]; assay type: functional
[13] = molecular target: T3, Kappa-type opioid receptor; assay: SAR analysis of Antagonists of the Kappa Opioid Receptor (KOR) using an Image-Based Assay - Set 2. [Related pubchem assays (depositor defined):AID1777, AID1785, AID1786, AID1966, AID2133, AID2136, AID2284, AID2285, AID2348]; assay type: functional
[14] = molecular target: T4, Small ubiquitin-related modifier 1 (Homo sapiens, UniProt P63165); assay: inhibitors of SUMO1 partner interactions, dose response, biochemical, FRET (AID 624383); assay type: functional; conditions: read-out: IC50_Mean
T4 sequence (P63165 whole entry): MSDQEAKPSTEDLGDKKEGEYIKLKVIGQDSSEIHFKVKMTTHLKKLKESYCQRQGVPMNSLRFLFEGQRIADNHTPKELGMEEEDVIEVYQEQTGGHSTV

[15] = Luminescence Cell Based Dose Confirmation HTS to Identify Activators of 5'UTR Stem-Loop Driven Alpha-Synuclein mRNA Translation in H4 Neuroglioblastoma Cells. [Related pubchem assays (depositor defined):AID1813, AID1829]; assay type: functional; conditions: Homo sapiens
[16] = molecular target: T4, Small ubiquitin-related modifier 1; assay: inhibitors of SUMO1 peptide binding, dose response, biochemical, fluorescence polarization, uHTS hits (AID 624382); assay type: functional; conditions: read-out: IC50_Mean

## CCOC(=O)C1(Cc2ccc(O)cc2)NC(c2ccccc2F)C2C(=O)N(C)C(=O)C21 (centres undefined)
[1]
  EC50: > 50 µM (not active)

## COC(=O)c1c(NC(=O)/C=C/c2ccco2)sc2c1CCC2
[2]
  IC50: > 100 µM (inactive)
[3]
  IC50: 50.4 µM (active)

## COC(=O)CN(n1cnnc1)S(=O)(=O)c1ccccc1
Aspartyl aminopeptidase
  IC50: 0.497 µM (active)
Procathepsin L
  IC50: > 59.6 µM (not active)

## COc1ccccc1CCNC(=O)c1cc(-c2ccco2)nc2ccccc12
[4]
  IC50: 25.8 µM (active)
[5]
  IC50: > 56.8 µM (inactive)

## CN(C)c1ccc(C=c2c3cc(O)ccc3n3c2cc(-c2ccccc2)[n+]3C)cc1
[6]
  AC50: 44.6 µM (active)
Nonstructural protein 1
  IC50: 3.76 µM (active)
[7]
  IC50: > 80 µM (inactive)
[8]
  EC50: > 104 µM (inactive)
[9]
  IC50: 20.1 µM (active)
[10]
  CC50: 50.7 µM (active)

## CC[C@@](C)(C(=O)NC1CCCCC1)N(Cc1ccco1)C(=O)c1ccccn1
[11]
  EC50: 0.128 µM (active)
[12]
  IC50: > 32 µM (inactive)
[13]
  IC50: > 32 µM (inactive)

## Fc1ccc(Nc2nnc(-c3ccncc3)s2)cc1Cl
[14]
  IC50: 100 µM (inactive)
[15]
  EC50: 12 µM (active)
[16]
  IC50: > 66.6 µM (inactive)
